Assay results as given in patent US11608332B2, “FGFR4 inhibitor and preparation method and use thereof” (Jiangsu Hansoh Pharmaceutical Group Co., Ltd., priority 2016, dated 2023).

Legend:
FGFR1 kinase = FGFR1 kinase (Homo sapiens (Human), UniProt P11362); assay: Enzymologic experiment of FGFR1 (TR-FRET); format: biochemical; details: TR-FRET kinase activity
Description: 2. Enzymologic Experiment of FGFR1
In this experiment, the inhibitory effect of the compounds on FGFR1 kinase activity was tested by a fluorescence resonance energy transfer (TR-FRET) method, and the half maximal inhibitory concentration (IC50) of the compounds on the FGFR1 kinase activity was determined.
1) 1˜5 μL of FGFR1 enzymatic solution was added to a 384-well plate, and the final concentration of the enzyme was 0.1˜5 nM.
2) 1˜5 μL of diluted solution in gradient of the compound was added.
3) 1˜5 μL of a substrate mixture containing substrate polypeptide with a final concentration of 5˜50 nM and ATP with a final concentration of 10˜200 μM was added.
4) The mixture was incubated for 0.5-3 hours at room temperature.
5) 10 μL of EDTA and a test solution comprising labeled antibody were added, and the plate was incubated for 1 hour at room temperature.
6) The fluorescence signal values of each plate were determined by a microplate reader at 665 nm.
7) The inhibition rates were calculated according to the fluorescence signal values.
The IC50 of the compound was obtained by curve fitting according to the inhibition rates at different concentrations, and the enzymatic activity of the specific example compounds is shown in Table 1.

Hep 3B cells = assay: Inhibition of Hep 3B cell proliferation (CellTiter-Glo); format: cell-based; details: Homo sapiens, Hep3B, 72 hours
Description: 3. Experiment on the Inhibition of Hep 3B Cell Proliferation
In this experiment, the inhibitory effect of the compounds on Hep 3B cell proliferation was tested by a CellTiter-Glo method, and the half maximal inhibitory concentration (IC50) of the compounds on the activity of cell proliferation was determined.
1) A 96-well cell culture plate was seeded with 50˜100 μL of Hep 3B cell suspension at a density of 1-5×10^4 cells/ml. The culture plate was incubated in an incubator for 16-24 hours (37° C., 5% CO2).
(§1) 2) Different concentrations of the test compound in a gradient dilution were added to the cells in the culture plate. The culture plate was incubated in an incubator for 72 hours (37° C., 5% CO2).
3) 50-100 μL of CellTiter-Glo reagent were added to each well. Then, the culture plate was shaken or left to stand for 5˜30 minutes at room temperature.
(§2) 4) The chemiluminescence signal values of each plate were determined by a microplate reader.
(§3) 5) The inhibition rates were calculated according to the chemiluminescence signal values.
6) The IC50 of the compound was obtained by curve fitting according to the inhibition rates at different concentrations, and the cell activity of the specific example compounds is shown in Table 2.

HuH-7 cells = assay: Inhibition of HuH-7 cell proliferation (CellTiter-Glo); format: cell-based; details: Homo sapiens, 72 hours
Description: 4. Experiment on the Inhibition of HuH-7 Cell Proliferation
In this experiment, the inhibitory effect of the compounds on HuH-7 cell proliferation was tested by a CellTiter-Glo method, and the half maximal inhibitory concentration (IC50) of the compounds on the activity of cell proliferation was determined.
1) A 96-well cell culture plate was seeded with 50˜100 μL of HuH-7 cell suspension at a density of 1-5×10^4 cells/ml. The culture plate was incubated in an incubator for 16˜24 hours (37° C., 5% CO2).
as §1
(§4) 3) 50˜100 μL of CellTiter-Glo reagent were added to each well. Then, the culture plate was shaken or left to stand for 5˜30 minutes at room temperature.
as §2, §3
6) The IC50 of the compound was obtained by curve fitting according to the inhibition rates at different concentrations, and the cell activity of the specific Example compounds is shown in Table 2.

SK-HEP-1 cells = assay: Inhibition of SK-HEP-1 cell proliferation (CellTiter-Glo); format: cell-based; details: Homo sapiens, SK-HEP1, 72 hours
Description: 5. Experiment on the Inhibition of SK-HEP-1 Cell Proliferation
In this experiment, the inhibitory effect of the compounds on SK-HEP-1 cell proliferation was tested by a CellTiter-Glo method, and the half maximal inhibitory concentration (IC50) of the compounds on the activity of cell proliferation was determined.
1) A 96-well cell culture plate was seeded with 50˜100 μL of SK-HEP-1 cell suspension at a density of 1-5×10^4 cells/ml. The culture plate was incubated in an incubator for 16˜24 hours (37° C., 5% CO2).
as §1, §4, §2, §3
The IC50 of the compound was obtained by curve fitting according to the inhibition rates at different concentrations, and the cell activity of the specific Example compounds is shown in Table 2.

[1] = Pharmacokinetic (PK) analysis in rats; format: in vivo, Sprague Dawley (SD) rats; details: SD rats, single intragastric administration, 5 mg/kg, plasma; for AUC(0-t): read-out: Area Under Curve AUC0-t; for AUC(0-inf): read-out: Area Under Curve AUC0-∞; for half-life: read-out: Half-Time t1/2 (converted); for Cmax: read-out: Plasma Concentration Cmax
Description: 6. Pharmacokinetic (PK) Analysis in Rats
Mode of administration: a single intragastric administration.
Formulation: 0.5% CMC and 1% Tween 80, ultrasonic dissolution.
Sampling points: 0.5, 1, 2, 4, 6, 8 and 24 hours after administration.
1. 1.0 ml of intravenous blood was collected and placed in a K2EDTA test tube.
The blood was centrifuged at room temperature at the speed of 1000˜3000×g for 5˜20 minutes to isolate the plasma, which was then stored at −80° C. 2. 160 μL of acetonitrile were added to 40 μL of plasma sample for precipitation, and then the mixture was centrifuged at the speed of 500˜2000×g for 5˜20 minutes. 3. 100 μL of treated solution were taken, and the concentration of the test compound was analyzed by LC/MS/MS. The LC/MS/MS analytical instrument was AB Sciex API 4000.
Liquid Chromatography Analysis:
Condition of Liquid chromatography: Shimadzu LC-20AD pump
Chromatographic column: phenomenex Gemiu 5 um C18 50×4.6 mm
Mobile phase: Solution A is 0.1% aqueous formic acid solution, and solution B is acetonitrile
Elution time: 0-3.5 minutes, the eluent was as follows:
Mass spectrometry analysis:
Mass spectrometer setup conditions: positive ion electrospray ionization (ESI) mode.

FGFR1 kinase, sequence (P11362 22-822): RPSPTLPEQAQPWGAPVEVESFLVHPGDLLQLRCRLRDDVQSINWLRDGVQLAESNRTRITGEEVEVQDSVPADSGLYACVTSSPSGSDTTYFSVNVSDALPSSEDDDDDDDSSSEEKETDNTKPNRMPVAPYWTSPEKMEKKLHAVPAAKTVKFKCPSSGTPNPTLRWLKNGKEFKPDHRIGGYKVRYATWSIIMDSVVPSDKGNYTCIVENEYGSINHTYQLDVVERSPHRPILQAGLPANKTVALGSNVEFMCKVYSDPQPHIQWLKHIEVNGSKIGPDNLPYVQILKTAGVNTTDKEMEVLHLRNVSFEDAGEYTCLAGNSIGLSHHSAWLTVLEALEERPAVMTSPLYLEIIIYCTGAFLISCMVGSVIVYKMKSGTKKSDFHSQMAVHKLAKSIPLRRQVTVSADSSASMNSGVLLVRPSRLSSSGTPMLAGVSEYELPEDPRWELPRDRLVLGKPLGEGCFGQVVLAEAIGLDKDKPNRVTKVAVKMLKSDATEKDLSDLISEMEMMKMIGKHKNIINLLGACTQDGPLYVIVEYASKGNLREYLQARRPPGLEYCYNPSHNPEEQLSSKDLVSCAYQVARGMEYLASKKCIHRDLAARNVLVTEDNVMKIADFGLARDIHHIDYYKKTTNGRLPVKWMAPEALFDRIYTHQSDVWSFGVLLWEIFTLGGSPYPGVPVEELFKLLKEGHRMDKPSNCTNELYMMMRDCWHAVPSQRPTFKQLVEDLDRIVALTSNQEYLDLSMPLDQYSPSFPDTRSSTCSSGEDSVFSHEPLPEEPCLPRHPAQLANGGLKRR

Compound | IC50 (FGFR1 kinase) [nM] | IC50 (Hep 3B cells) [nM] | IC50 (HuH-7 cells) [nM] | IC50 (SK-HEP-1 cells) [nM] | Peak Time tmax [1] [h] | AUC(0-t) ([1]; Sprague-Dawley, rat, po) [ng·h/mL] | AUC(0-inf) ([1]; Sprague-Dawley, rat, po) [ng·h/mL] | half-life ([1]; Sprague-Dawley, rat, po) [h] | Cmax ([1]; Sprague-Dawley, rat, po) [ng/mL] | MRT ([1]; Sprague-Dawley, rat, po, read-out: Mean Residence Time MRT) [h]
COCCNc1cc(NC(=O)N2CCCc3cc(CN(C)C(=O)[C@H]4CCOC4)c(C=O)nc32)ncc1C#N [Example 6, (S)—N-(5-Cyano-4-((2-methoxyethyl)amino)pyridin-2-yl)-7-formyl-6-((N-methyltetrahydrofuran-3-carboxamido)methyl)-3,4-dihydro-1,8-naphthyridin-1(2H)-carb oxamide] | > 10000 | 2.7 | 9.7 | > 10000 |  |  |  |  |  | 
COCCNc1cc(NC(=O)N2CCCc3cc(CN(C)C(=O)[C@@H]4CCOC4)c(C=O)nc32)ncc1C#N [Example 7, (R)—N-(5-Cyano-4-((2-methoxyethyl)amino)pyridin-2-yl)-7-formyl-6-((N-methyltetrahydrofuran-3-carboxamido)methyl)-3,4-dihydro-1,8-naphthyridin-1(2H)-carb oxamide] | > 10000 | 4.7 | 10.6 | > 10000 |  |  |  |  |  | 
COCCNc1cc(NC(=O)N2CCCc3cc(CN4CCC(OC)C4=O)c(C=O)nc32)ncc1C#N (centres unmarked) [Example 44, N-(5-Cyano-4-((2-methoxyethyl)amino)pyridin-2-yl)-7-formyl-6-((3-methoxy-2-carbonylpyrrolidin-1-yl)methyl)-3,4-dihydro-1,8-naphthyridin-1(2H)-carboxamide] |  | 6 | 6.9 | > 10000 | 2 | 9690 | 9820 | 1 | 3010 | 
COCCNc1cc(NC(=O)N2CCCc3cc(CN4CC[C@@H](OC)C4=O)c(C=O)nc32)ncc1C#N [Example 45, (R)—N-(5-Cyano-4-((2-methoxyethyl)amino)pyridin-2-yl)-7-formyl-6-((3-methoxy-2-carbonylpyrrolidin-1-yl)methyl)-3,4-dihydro-1,8-naphthyridin-1(2H)-carboxamide] |  | 1.9 | 8.3 | > 10000 | 2 | 12100 | 12300 | 1.1 | 3760 | 
CO[C@H]1CCN(c2cc(NC(=O)N3CCCc4cc(CN5CC[C@H](OC)C5=O)c(C=O)nc43)ncc2C#N)C1 [Example 53, N-(5-Cyano-4-((S)-3-methoxypyrrolidin-1-yl)pyridin-2-yl)-7-formyl-6-(((S)-3-methoxy-2-carbonylpyrrolidin-1-yl)methyl)-3,4-dihydro-1,8-naphthyridin-1(2H)-carboxamide] | > 10000 |  |  |  |  |  |  |  |  | 
COC[C@H](C)Nc1cc(NC(=O)N2CCCc3cc(CN4CC[C@H](OC)C4=O)c(C=O)nc32)ncc1C#N [Example 90, N-(5-Cyano-4-(((S)-1-methoxypropan-2-yl)amino)pyridin-2-yl)-7-formyl-6-(((S)-3-methoxy-2-carbonylpyrrolidin-1-yl)methyl)-3,4-dihydro-1,8-naphthyridin-1(2H)-carboxamide] | > 10000 |  |  |  |  |  |  |  |  | 
COC[C@@H](C)Nc1cc(NC(=O)N2CCCc3cc(CN4CC[C@@H](OC)C4=O)c(C=O)nc32)ncc1C#N [Example 91, N-(5-cyano-4-(((R)-1-methoxypropan-2-yl)amino)pyridin-2-yl)-7-formyl-6-(((R)-3-methoxy-2-carbonylpyrrolidin-1-yl)methyl)-3,4-dihydro-1,8-naphthyridin-1(2H)-carboxamide] |  | 1.5 | 3.3 | > 10000 | 0.5 | 12900 | 13000 | 0.9 | 2790 | 2.8
COC[C@H](C)Nc1cc(NC(=O)N2CCCc3cc(CN(C)C(=O)[C@H]4CCCO4)c(C=O)nc32)ncc1C#N [Example 92, N-(5-Cyano-4-(((S)-1-methoxypropan-2-yl)amino)pyridin-2-yl)-7-formyl-6-(((R)—N-methyltetrahydrofuran-2-carboxamido)methyl)-3,4-dihydro-1,8-naphthyridin-1(2H)-carboxamide] | > 10000 |  |  |  |  |  |  |  |  | 
CN(Cc1cc2c(nc1C=O)N(C(=O)Nc1cc(N[C@@H]3CCOC3)c(C#N)cn1)CCC2)C(=O)[C@H]1CCCO1 [Example 95, N-(5-Cyano-4-(((R)-tetrahydrofuran-3-yl)amino)pyridin-2-yl)-7-formyl-6-(((R)—N-methyltetrahydrofuran-2-carboxamido)methyl)-3,4-dihydro-1,8-naphthyridin-1 (2H)-carboxamide] | > 10000 | 2.8 | 12.9 | > 10000 |  |  |  |  |  | 
COCC(=O)N(C)Cc1cc2c(nc1C=O)N(C(=O)Nc1cc(N3CC[C@H](OC)C3)c(C#N)cn1)CCC2 [Example 106, (S)—N-(5-Cyano-4-(3-methoxypyrrolidin-1-yl)pyridin-2-yl)-7-formyl-6-((2-methoxy-N-methylacetamido)methyl)-3,4-dihydro-1,8-naphthyridin-1(2H)-carboxamide] | > 10000 | 5.8 | 21.1 | > 10000 |  |  |  |  |  | 
COCCNc1cc(NC(=O)N2CCCc3cc(CN(C=O)C[C@H]4CCCO4)c(C=O)nc32)ncc1C#N [Example 110, (R)—N-(5-Cyano-4-((2-methoxyethyl)amino)pyridin-2-yl)-7-formyl-6-((N-((tetrahydrofuran-2-yl)methyl)formylamino)methyl)-3,4-dihydro-1,8-naphthyridin-1(2H)-carboxamide] |  | 8.3 | 28.5 | > 10000 |  |  |  |  |  | 
COCCNc1cc(NC(=O)N2CCCc3cc(CN(C=O)[C@H]4CCOC4)c(C=O)nc32)ncc1C#N [Example 114, (S)—N-(5-Cyano-4-((2-methoxyethyl)amino)pyridin-2-yl)-7-formyl-6-((N-(tetrahydrofuran-3-yl)formylamino)methyl)-3,4-dihydro-1,8-naphthyridin-1(2H)-carboxamide] |  | 8.6 | 26.7 | > 10000 |  |  |  |  |  | 
